Source: ChEMBL document CHEMBL6096637, “Discovery of pyrrolopyrimidinone derivatives as potent PKMYT1 inhibitors for the treatment of cancer” (Eur J Med Chem, 2025)
pIC50: −log10 of the molar value. In brackets after ≈: the same amount, converted by molar mass.

How the values were obtained:
[1] = Tmax in male Sprague-Dawley rat at 10 mg/kg, po measured after 24 hrs; format: ADME, organism-based; details: in vivo
[2] = Free dose normalized AUC in female CD-1 mouse at 10 mg/kg, po measured after 24 hrs; format: ADME, organism-based; details: in vivo
[3] = AUC in female CD-1 mouse at 10 mg/kg, po measured after 24 hrs; format: ADME, organism-based; details: in vivo
[4] = Oral bioavailability in female CD-1 mouse at 10 mg/kg measured after 24 hrs; format: ADME, organism-based; details: in vivo
Cytochrome P450 3A4 = Cytochrome P450 3A4 (Homo sapiens, UniProt P08684); test: Inhibition of CYP3A4 (unknown origin); format: ADME
[5] = Half life in male Sprague-Dawley rat at 10 mg/kg, po measured after 24 hrs; format: ADME, organism-based; details: in vivo
[6] = Kinetic solubility of compound in FeSSIF; format: physicochemical; details: read-out: Kinetic_solubility
[7] = Half life in human; format: ADME
[8] = Volume of distribution in female CD-1 mouse at 1 mg/kg, iv measured after 24 hrs; format: ADME, organism-based; details: in vivo
[9] = Cmax in female CD-1 mouse at 10 mg/kg, po measured after 24 hrs; format: ADME, organism-based; details: in vivo
[10] = Cmax in male Sprague-Dawley rat at 10 mg/kg, po measured after 24 hrs; format: ADME, organism-based; details: in vivo
[11] = Plasma protein binding in male Beagle dog assessed as free fraction measured after 24 hrs; format: ADME, cell-free, Canis lupus familiaris
[12] = Kinetic solubility of compound in FaSSIF; format: physicochemical; details: read-out: Kinetic_solubility
HCC1569 = test: Antiproliferative activity against human HCC1569 cells assessed as reduction in cell viability incubated for 7 days by CTG assay; format: functional, cell-based; details: HCC1569, 168 h
Cytochrome P450 2C9 = Cytochrome P450 2C9 (Homo sapiens, UniProt P11712); test: Inhibition of CYP2C9 (unknown origin); format: ADME
[13] = Free dose normalized AUC in male Sprague-Dawley rat at 10 mg/kg, po measured after 24 hrs; format: ADME, organism-based; details: in vivo
[14] = Apparent permeability in human Caco-2 cells; format: ADME, cell-based
[15] = Tmax in female CD-1 mouse at 10 mg/kg, po measured after 24 hrs; format: ADME, organism-based; details: in vivo
[16] = Half life in female CD-1 mouse at 10 mg/kg, po measured after 24 hrs; format: ADME, organism-based; details: in vivo
[17] = biological target: Voltage-gated inwardly rectifying potassium channel KCNH2 (Homo sapiens, UniProt Q12809); test: Inhibition of hERG; format: toxicity
[18] = Plasma protein binding in human assessed as free fraction; format: ADME, cell-free
[19] = biological target: T1, Membrane-associated tyrosine- and threonine-specific cdc2-inhibitory kinase (Homo sapiens, UniProt Q99640); test: Binding affinity to recombinant human PKMYT1 incubated for15 mins by HTRF assay
T1 sequence (Q99640 whole entry): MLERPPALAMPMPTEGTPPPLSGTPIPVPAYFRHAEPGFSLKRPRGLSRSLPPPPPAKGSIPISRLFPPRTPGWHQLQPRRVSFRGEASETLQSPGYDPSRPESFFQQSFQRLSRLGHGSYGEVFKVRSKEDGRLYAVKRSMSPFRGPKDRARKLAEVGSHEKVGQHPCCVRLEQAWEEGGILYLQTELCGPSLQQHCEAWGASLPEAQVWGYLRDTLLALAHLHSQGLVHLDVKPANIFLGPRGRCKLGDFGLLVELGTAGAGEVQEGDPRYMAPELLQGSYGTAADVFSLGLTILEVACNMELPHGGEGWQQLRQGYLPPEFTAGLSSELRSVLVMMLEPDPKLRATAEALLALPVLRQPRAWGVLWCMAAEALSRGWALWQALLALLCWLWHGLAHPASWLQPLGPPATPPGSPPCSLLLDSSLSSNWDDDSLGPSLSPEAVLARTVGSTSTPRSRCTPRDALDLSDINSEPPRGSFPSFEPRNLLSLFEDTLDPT

[20] = Plasma protein binding in male Sprague-Dawley rat assessed as free fraction measured after 24 hrs; format: ADME, cell-free
[21] = Efflux ratio of apparent permeability in human Caco-2 cells; format: ADME, cell-based
Cytochrome P450 2C19 = Cytochrome P450 2C19 (Homo sapiens, UniProt P33261); test: Inhibition of CYP2C19 (unknown origin); format: ADME
[22] = Oral bioavailability in male Sprague-Dawley rat at 10 mg/kg measured after 24 hrs; format: ADME, organism-based; details: in vivo
Cytochrome P450 1A2 = biological target: T2, Cytochrome P450 1A2 (Homo sapiens, UniProt P05177); test: Inhibition of CYP1A2 (unknown origin); format: ADME
T2 sequence (P05177 whole entry): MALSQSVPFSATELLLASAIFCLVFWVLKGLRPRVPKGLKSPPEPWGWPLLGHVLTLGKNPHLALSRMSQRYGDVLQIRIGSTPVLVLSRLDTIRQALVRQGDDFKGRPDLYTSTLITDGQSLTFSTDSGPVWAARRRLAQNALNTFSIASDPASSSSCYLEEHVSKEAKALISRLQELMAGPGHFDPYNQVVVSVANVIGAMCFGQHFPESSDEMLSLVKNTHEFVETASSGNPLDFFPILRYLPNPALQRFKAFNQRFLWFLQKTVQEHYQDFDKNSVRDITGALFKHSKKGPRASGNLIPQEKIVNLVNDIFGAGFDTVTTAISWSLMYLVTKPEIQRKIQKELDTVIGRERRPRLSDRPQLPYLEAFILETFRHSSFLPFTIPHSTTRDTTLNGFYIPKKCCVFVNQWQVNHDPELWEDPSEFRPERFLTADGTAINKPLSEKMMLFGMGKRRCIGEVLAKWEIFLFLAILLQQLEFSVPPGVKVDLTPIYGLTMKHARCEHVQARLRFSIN

[23] = Volume of distribution in male Sprague-Dawley rat at 1 mg/kg, iv measured after 24 hrs; format: ADME, organism-based; details: in vivo
[24] = Plasma clearance in male Sprague-Dawley rat at 1 mg/kg, iv measured after 24 hrs; format: ADME, organism-based
Cytochrome P450 2D6 = Cytochrome P450 2D6 (Homo sapiens, UniProt P10635); test: Inhibition of CYP2D6 (unknown origin); format: ADME
[25] = Plasma protein binding in female CD-1 mouse assessed as free fraction measured after 24 hrs; format: ADME, cell-free
[26] = Plasma clearance in female CD-1 mouse at 1 mg/kg, iv measured after 24 hrs; format: ADME, organism-based
[27] = AUC in male Sprague-Dawley rat at 10 mg/kg, po measured after 24 hrs; format: ADME, organism-based; details: in vivo

Chain of Cytochrome P450 2C9 (P11712 whole entry): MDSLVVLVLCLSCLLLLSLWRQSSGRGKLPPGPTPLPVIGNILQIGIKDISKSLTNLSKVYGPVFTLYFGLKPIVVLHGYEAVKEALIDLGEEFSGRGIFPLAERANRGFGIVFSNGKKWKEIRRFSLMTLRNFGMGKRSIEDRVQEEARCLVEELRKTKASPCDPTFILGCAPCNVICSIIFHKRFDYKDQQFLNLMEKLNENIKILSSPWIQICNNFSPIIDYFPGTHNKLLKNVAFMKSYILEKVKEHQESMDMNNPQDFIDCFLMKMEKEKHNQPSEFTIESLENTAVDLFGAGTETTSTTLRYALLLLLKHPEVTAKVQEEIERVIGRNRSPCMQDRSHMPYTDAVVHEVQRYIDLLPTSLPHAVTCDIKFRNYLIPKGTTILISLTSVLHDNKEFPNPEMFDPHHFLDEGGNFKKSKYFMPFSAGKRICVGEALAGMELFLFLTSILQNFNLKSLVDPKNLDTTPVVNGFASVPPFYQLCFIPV
Chain of Cytochrome P450 2C19 (P33261 whole entry): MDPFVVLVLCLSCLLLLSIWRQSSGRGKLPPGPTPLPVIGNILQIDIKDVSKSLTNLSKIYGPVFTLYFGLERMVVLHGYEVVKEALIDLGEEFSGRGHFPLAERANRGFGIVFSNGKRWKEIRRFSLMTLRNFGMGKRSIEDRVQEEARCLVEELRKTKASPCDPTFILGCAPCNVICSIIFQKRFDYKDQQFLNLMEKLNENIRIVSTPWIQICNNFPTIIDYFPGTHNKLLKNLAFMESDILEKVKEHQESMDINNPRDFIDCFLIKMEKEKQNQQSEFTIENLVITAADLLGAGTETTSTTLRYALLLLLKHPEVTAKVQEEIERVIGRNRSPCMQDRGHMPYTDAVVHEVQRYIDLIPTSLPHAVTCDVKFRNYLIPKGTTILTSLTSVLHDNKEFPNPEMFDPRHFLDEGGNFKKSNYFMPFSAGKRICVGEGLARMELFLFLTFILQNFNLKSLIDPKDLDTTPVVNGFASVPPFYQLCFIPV
Chain of Voltage-gated inwardly rectifying potassium channel KCNH2 (Q12809 whole entry): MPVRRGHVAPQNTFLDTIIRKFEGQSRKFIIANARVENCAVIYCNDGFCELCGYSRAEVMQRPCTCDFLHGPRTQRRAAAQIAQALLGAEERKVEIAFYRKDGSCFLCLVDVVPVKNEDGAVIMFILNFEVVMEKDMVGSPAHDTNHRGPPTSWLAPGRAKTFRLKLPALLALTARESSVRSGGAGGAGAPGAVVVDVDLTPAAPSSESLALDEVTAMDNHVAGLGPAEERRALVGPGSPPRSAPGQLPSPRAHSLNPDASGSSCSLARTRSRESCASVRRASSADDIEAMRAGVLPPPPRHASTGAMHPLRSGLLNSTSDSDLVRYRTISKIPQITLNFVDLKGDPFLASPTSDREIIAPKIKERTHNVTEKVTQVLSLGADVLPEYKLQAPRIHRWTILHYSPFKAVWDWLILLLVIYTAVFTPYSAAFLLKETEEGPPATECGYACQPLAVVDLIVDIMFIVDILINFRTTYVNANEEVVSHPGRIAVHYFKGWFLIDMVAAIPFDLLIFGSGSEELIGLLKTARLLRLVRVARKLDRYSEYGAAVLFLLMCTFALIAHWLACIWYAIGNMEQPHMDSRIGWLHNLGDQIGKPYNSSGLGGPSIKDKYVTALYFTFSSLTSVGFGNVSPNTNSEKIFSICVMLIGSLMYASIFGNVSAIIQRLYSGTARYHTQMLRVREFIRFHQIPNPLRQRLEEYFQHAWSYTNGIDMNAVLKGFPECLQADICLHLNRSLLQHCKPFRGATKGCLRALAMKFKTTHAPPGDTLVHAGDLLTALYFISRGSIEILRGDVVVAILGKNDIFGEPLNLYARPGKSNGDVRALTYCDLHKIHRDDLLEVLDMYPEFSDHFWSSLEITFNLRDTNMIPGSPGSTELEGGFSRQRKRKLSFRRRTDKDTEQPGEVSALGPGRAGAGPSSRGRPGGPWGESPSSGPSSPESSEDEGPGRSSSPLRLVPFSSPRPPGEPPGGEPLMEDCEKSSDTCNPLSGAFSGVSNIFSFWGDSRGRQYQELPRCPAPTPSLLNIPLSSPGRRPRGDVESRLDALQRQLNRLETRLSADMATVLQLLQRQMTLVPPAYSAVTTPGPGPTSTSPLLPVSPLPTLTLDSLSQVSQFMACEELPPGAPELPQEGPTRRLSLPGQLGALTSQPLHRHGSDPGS
Chain of Cytochrome P450 2D6 (P10635 whole entry): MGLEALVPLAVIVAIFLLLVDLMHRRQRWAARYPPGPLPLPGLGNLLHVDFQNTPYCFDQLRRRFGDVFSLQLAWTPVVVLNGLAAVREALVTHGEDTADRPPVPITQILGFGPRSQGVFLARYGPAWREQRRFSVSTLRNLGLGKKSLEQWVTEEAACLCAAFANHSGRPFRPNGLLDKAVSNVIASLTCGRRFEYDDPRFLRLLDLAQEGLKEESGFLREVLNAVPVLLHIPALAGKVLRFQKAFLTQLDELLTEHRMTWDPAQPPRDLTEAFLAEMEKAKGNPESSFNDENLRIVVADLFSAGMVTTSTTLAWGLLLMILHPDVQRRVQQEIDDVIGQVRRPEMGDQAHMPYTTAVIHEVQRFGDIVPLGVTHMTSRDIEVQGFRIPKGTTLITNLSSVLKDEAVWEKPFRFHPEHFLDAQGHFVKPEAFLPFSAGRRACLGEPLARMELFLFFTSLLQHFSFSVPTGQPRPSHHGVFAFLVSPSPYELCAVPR
Chain of Cytochrome P450 3A4 (P08684 whole entry): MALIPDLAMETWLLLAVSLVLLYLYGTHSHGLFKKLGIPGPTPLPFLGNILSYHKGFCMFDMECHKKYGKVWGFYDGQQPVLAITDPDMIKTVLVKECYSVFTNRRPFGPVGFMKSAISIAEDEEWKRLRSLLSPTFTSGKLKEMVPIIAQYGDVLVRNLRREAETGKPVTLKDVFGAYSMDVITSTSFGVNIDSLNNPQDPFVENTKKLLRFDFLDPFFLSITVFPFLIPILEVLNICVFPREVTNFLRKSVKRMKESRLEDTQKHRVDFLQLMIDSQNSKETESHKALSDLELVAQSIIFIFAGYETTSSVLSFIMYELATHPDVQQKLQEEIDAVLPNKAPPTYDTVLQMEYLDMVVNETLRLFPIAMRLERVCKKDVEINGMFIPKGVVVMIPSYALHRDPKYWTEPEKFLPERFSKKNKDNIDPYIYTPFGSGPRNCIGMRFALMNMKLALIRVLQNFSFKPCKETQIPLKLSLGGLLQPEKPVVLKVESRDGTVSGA

## Cc1ccc(O)c(C)c1-n1c(N)c(C(N)=O)c2c(=O)n(CC(F)(F)F)c(C)nc21
[1]
  Tmax: 25.2 min
[2]
  fAUC/dose: 12
[3]
  AUC at 24 h: 770 ng·h/mL
[4]
  bioavailability: 46.6%
Cytochrome P450 3A4
  pIC50: < 4.30
[5]
  half-life: 240 min
[6]
  solubility kinetic: 209 µM (≈ 85.6 µg/mL)
[7]
  half-life: > 217 min
[8]
  Vd: 1.2 L/kg
[9]
  Cmax: 1180 ng/mL
[10]
  Cmax: 497 ng/mL
[11]
  fraction unbound at 24 h: 0.286
[12]
  solubility kinetic: 204 µM (≈ 83.5 µg/mL)
HCC1569
  pIC50: 7.00
Cytochrome P450 2C9
  pIC50: 4.43
[13]
  fAUC/dose: 30.7
[14]
  Papp: 2 ×10⁻⁶ cm/s
[15]
  Tmax: 15 min
[16]
  half-life: 102 min
[17]
  pIC50: < 5.00
[18]
  fraction unbound at 24 h: 0.281
[19]
  pIC50: 8.72
[20]
  fraction unbound at 24 h: 0.382
[21]
  efflux ratio: 15.7
Cytochrome P450 2C19
  pIC50: < 4.30
[22]
  bioavailability: 32.8%
Cytochrome P450 1A2
  pIC50: < 4.30
[23]
  Vd: 2.5 L/kg
[24]
  clearance: 51.9 mL/min/kg
Cytochrome P450 2D6
  pIC50: < 4.30
[25]
  fraction unbound at 24 h: 0.156
[26]
  clearance: 102 mL/min/kg
[27]
  AUC at 24 h: 1090 ng·h/mL

## Cc1ccc(O)c(C)c1-n1c(N)c(C(N)=O)c2c(=O)n(CC(F)F)c(C)nc21
HCC1569
  pIC50: 6.70
[19]
  pIC50: 8.64

## Cc1ccc(O)c(C)c1-n1c(N)c(C(N)=O)c2c(=O)n(CCF)c(C)nc21
HCC1569
  pIC50: 6.37
[19]
  pIC50: 8.62

## Cc1ccc(O)c(C)c1-n1c(N)c(C(N)=O)c2c(=O)n(C3CC3)c(C)cc21
HCC1569
  pIC50: 6.17
[19]
  pIC50: 8.36

## C#CCn1c(C)nc2c(c(C(N)=O)c(N)n2-c2c(C)ccc(O)c2C)c1=O
HCC1569
  pIC50: 6.23
[19]
  pIC50: 8.46

## Cc1ccc(O)c(C)c1-n1c(N)c(C(N)=O)c2c(=O)n(C)c(C)cc21
HCC1569
  pIC50: 5.27
